Earlier results, collected in patent US20230190754A1, “Therapeutic combinations for the treatment of Progressive Fibrosing interstitial lung diseases” (Boehringer Ingelheim International GmbH, priority 2021, published 2023).

Test system: PDE4 subtypes, A-D
Settings: cited from earlier work

Row | Structure (SMILES) | Preferential enzymatic inhibition among the PDE4 subtypes (in words)
1 | CCOc1cc([C@@H](CS(C)(=O)=O)N2C(=O)c3cccc(NC(C)=O)c3C2=O)ccc1OC [apremilast] | None of these show any preferential enzymatic inhibition
2 | N#Cc1ccc(Oc2ccc3c(c2)COB3O)cc1 [crisaborole] | None of these show any preferential enzymatic inhibition
3 | O=C(Nc1c(Cl)cncc1Cl)c1ccc(OC(F)F)c(OCC2CC2)c1 [roflumilast] | None of these show any preferential enzymatic inhibition
